Source: ChEMBL document CHEMBL1201862, “PubChem BioAssay data set” (2004)
The source made the active and inactive calls.

What was measured:
[1] = target: 5-hydroxytryptamine receptor 1E (Homo sapiens, UniProt P28566); experiment: Counterscreen assay for S1P3 antagonists: Dose response cell-based high throughput screening assay to identify antagonists of the 5-Hydroxytryptamine Receptor Subtype 1E (5HT1E). [Related pubchem assays: 1429, 485 ]; format: functional
[2] = target: Sphingosine 1-phosphate receptor 3 (Homo sapiens, UniProt Q99500); experiment: Dose response cell-based high throughput screening assay for antagonists of the Sphingosine 1-Phosphate Receptor 3 (S1P3). [Related pubchem assays: 1429, 485 ]; format: functional
[3] = target: T1, Short transient receptor potential channel 4 (Mus musculus, UniProt Q9QUQ5); experiment: mouse TRPC4 channel activators, dose response, cell-based, HEK293 TRPC4/mu-opioid, Fluo-4 calcium (AID 434937); format: functional
T1 sequence (Q9QUQ5 whole entry): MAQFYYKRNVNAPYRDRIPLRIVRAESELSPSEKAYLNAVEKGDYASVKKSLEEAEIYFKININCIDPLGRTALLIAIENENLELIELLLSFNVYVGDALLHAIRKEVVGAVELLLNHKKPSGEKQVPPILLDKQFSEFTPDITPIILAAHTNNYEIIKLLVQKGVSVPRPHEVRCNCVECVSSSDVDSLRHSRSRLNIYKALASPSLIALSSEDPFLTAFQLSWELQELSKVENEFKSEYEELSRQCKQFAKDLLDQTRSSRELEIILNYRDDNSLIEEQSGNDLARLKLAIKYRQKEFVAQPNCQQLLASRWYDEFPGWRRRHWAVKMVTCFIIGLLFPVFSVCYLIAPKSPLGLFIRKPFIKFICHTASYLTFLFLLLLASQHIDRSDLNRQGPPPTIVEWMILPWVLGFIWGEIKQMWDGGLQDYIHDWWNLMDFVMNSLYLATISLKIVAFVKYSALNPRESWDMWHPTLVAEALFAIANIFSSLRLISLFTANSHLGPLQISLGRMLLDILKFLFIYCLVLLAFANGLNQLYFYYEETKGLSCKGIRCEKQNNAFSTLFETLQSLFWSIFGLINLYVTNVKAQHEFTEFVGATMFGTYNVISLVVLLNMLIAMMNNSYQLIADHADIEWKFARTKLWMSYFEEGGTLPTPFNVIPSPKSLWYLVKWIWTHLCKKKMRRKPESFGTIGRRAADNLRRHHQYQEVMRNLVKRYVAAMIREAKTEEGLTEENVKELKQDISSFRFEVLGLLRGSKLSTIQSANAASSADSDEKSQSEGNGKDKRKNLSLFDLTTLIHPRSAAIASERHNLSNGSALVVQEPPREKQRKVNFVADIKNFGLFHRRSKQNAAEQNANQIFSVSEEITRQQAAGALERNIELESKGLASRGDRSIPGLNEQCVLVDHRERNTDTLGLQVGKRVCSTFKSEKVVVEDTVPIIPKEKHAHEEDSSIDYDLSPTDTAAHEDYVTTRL

[4] = target: Induced myeloid leukemia cell differentiation protein Mcl-1 (Homo sapiens, UniProt Q07820); experiment: MCL1-BIM BH3 interaction inhibitors, dose response, biochemical, fluorescence polarization, BIM-BH3 peptide, 1536-well (AID 2217)
[5] = target: Bcl-2-like protein 1 (Homo sapiens, UniProt Q07817); experiment: BCL-XL inhibitors, dose response, selectivity assay for MCL1 inhibitor project, biochemical, fluorescence polarization, 1536-well (AID 2218)
[6] = target: T2, Replicative DNA helicase DnaB (Mycobacterium tuberculosis, UniProt P9WMR3); experiment: DnaB intein splicing inhibitors, dose response, biochemical, cell-free fluorescence (AID 449749); format: functional
T2 sequence (P9WMR3 whole entry): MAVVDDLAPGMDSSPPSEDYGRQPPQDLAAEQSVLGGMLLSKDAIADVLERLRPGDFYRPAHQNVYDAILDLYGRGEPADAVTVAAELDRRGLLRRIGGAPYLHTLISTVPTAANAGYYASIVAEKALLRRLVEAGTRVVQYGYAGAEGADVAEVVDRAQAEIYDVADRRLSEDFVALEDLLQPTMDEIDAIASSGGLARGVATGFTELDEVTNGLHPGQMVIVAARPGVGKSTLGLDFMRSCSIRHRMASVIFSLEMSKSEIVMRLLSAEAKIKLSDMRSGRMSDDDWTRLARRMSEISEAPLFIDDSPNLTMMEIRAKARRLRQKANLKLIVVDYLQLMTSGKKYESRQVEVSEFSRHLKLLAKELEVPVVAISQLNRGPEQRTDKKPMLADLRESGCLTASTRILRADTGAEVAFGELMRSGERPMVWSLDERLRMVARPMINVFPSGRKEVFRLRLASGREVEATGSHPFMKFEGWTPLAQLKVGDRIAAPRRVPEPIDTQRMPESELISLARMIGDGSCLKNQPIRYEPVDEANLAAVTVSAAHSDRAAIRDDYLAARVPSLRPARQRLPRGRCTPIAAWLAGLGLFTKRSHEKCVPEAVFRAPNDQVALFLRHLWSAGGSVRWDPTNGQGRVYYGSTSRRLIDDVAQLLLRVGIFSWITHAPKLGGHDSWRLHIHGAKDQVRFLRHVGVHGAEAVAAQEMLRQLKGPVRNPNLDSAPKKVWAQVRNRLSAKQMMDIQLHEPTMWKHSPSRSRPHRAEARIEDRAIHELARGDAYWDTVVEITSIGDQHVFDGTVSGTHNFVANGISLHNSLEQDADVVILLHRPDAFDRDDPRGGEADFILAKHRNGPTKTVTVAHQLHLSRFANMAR

[7] = target: T3, Protein RecA (Mycobacterium tuberculosis, UniProt P9WHJ3); experiment: Fluorescence Cell-Free Homogeneous Dose Retest to Identify Inhibitors of RecA-Intein Splicing Activity. [Related pubchem assays (depositor defined):AID2097, AID2223, AID489010, AID492950]; format: functional
T3 sequence (P9WHJ3 whole entry): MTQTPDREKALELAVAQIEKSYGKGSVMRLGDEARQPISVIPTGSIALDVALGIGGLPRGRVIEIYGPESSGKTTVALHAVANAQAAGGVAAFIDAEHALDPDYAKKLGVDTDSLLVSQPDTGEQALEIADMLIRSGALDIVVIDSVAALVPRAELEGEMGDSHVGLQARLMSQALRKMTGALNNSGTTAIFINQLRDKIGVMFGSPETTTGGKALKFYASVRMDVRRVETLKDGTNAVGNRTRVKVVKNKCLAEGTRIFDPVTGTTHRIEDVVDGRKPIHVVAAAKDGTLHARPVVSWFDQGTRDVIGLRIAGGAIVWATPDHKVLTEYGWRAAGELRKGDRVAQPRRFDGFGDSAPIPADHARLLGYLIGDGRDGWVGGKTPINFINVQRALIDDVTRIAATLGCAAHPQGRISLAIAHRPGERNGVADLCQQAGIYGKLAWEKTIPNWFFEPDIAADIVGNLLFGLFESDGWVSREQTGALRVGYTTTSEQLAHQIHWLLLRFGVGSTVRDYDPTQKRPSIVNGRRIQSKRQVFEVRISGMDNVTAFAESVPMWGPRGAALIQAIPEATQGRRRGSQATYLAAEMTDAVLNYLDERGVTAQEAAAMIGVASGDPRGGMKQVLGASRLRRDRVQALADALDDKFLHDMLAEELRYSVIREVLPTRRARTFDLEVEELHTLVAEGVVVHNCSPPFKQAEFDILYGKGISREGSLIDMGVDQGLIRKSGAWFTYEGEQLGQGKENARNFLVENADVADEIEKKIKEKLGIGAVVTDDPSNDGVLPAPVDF

[8] = target: NADPH oxidase 1 (Homo sapiens, UniProt Q9Y5S8); experiment: Luminescence-based cell-based dose response assay to identify inhibitors of NADPH oxidase 1 (NOX1).; format: functional
[9] = target: T4, RNA-binding protein pos-1 (Caenorhabditis elegans, UniProt G5EF15); experiment: inhibitors of POS-1/mex-3 RNA binding, dose response, biochemical, fluorescence polarization (AID 1964);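 further: purified POS-1 fused to maltose binding protein made in E. coli; potency of compounds blocking POS-1 binding to fluorescent RNA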
T4 sequence (G5EF15 whole entry): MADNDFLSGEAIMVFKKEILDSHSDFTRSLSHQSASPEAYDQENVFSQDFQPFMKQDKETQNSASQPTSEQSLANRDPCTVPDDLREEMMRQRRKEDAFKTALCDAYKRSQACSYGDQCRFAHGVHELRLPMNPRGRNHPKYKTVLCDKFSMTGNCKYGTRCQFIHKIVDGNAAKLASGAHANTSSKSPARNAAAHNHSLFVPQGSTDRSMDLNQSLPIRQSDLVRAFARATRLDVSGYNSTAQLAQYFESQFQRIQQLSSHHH

[10] = target: T5, Zinc finger protein mex-5 (Caenorhabditis elegans, UniProt Q9XUB2); experiment: MEX-5/TCR-2 RNA interaction inhibitors, dose response, biochemical, C. elegans, fluorescence polarization (AID 1960)
T5 sequence (Q9XUB2 whole entry): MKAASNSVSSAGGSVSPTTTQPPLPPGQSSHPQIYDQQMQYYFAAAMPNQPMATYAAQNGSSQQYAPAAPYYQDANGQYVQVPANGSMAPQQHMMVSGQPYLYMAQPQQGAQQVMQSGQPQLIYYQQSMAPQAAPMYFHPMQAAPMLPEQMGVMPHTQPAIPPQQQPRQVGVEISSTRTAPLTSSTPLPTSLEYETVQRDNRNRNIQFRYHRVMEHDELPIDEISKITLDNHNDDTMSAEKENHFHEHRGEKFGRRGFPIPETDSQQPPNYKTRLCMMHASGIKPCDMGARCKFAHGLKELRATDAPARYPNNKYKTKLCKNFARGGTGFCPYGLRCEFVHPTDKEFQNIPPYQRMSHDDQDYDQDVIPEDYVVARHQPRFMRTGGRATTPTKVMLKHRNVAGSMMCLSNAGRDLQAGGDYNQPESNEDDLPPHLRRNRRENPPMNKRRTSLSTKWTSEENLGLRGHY

[11] = target: T6, Voltage-gated N-type calcium channel alpha-1B subunit/Amyloid beta A4 precursor protein-binding family A member 1 (Homo sapiens, UniProt Q00975+Q02410); format: protein assay
[12] = target: T7, Mannose-6-phosphate isomerase (Homo sapiens, UniProt P34949); experiment: inhibitors of human PMI, primary screen, biochemical, fluorescence intensity, coupled assay (AID 1209)
T7 sequence (P34949 whole entry): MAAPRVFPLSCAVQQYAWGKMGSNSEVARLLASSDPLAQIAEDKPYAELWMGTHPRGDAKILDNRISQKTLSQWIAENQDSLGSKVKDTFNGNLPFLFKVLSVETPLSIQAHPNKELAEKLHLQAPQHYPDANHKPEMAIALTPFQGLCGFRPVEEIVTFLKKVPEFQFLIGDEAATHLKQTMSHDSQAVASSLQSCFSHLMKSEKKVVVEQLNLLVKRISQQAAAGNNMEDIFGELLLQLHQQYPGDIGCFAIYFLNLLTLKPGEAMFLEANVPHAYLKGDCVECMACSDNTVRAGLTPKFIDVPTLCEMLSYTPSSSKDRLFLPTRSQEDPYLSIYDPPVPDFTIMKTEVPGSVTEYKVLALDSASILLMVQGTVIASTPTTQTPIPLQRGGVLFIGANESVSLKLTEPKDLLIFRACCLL

[13] = target: T6, Voltage-gated N-type calcium channel alpha-1B subunit/Amyloid beta A4 precursor protein-binding family A member 1; format: protein assay; remark: listed apart in the source
[14] = target: Luciferin 4-monooxygenase (Photinus pyralis, UniProt P08659); experiment: firefly luciferase enzyme inhibitors, dose response, biochemical, luminescence (AID 1891)
[15] = Luminescence Cell-Based Dose Confirmation HTS to Identify Inhibitors of Platelet Dense Granule Release. [Related pubchem assays: 1663 (Primary HTS), 1678 (Summary of Project)]; format: functional
[16] = inhibitors of SFLLRN-triggered platelet P-selectin exposure, dose response, cell-based, fluorescence, flow cytometry, human platelets (AID 2511); format: functional
[17] = Fluorescence Cell-Based Dose Response to Identify Inhibitors of Thrombin Receptor-Activating Peptide SFLLRN-Mediated P-Selectin Induction on Platelets. [Related pubchem assays: 1663 (Primary HTS), 1889 (retest at dose ), 1891 (counterscreen), 1678 (Project Summary)]; format: functional

T6 sequence (Q00975 whole entry): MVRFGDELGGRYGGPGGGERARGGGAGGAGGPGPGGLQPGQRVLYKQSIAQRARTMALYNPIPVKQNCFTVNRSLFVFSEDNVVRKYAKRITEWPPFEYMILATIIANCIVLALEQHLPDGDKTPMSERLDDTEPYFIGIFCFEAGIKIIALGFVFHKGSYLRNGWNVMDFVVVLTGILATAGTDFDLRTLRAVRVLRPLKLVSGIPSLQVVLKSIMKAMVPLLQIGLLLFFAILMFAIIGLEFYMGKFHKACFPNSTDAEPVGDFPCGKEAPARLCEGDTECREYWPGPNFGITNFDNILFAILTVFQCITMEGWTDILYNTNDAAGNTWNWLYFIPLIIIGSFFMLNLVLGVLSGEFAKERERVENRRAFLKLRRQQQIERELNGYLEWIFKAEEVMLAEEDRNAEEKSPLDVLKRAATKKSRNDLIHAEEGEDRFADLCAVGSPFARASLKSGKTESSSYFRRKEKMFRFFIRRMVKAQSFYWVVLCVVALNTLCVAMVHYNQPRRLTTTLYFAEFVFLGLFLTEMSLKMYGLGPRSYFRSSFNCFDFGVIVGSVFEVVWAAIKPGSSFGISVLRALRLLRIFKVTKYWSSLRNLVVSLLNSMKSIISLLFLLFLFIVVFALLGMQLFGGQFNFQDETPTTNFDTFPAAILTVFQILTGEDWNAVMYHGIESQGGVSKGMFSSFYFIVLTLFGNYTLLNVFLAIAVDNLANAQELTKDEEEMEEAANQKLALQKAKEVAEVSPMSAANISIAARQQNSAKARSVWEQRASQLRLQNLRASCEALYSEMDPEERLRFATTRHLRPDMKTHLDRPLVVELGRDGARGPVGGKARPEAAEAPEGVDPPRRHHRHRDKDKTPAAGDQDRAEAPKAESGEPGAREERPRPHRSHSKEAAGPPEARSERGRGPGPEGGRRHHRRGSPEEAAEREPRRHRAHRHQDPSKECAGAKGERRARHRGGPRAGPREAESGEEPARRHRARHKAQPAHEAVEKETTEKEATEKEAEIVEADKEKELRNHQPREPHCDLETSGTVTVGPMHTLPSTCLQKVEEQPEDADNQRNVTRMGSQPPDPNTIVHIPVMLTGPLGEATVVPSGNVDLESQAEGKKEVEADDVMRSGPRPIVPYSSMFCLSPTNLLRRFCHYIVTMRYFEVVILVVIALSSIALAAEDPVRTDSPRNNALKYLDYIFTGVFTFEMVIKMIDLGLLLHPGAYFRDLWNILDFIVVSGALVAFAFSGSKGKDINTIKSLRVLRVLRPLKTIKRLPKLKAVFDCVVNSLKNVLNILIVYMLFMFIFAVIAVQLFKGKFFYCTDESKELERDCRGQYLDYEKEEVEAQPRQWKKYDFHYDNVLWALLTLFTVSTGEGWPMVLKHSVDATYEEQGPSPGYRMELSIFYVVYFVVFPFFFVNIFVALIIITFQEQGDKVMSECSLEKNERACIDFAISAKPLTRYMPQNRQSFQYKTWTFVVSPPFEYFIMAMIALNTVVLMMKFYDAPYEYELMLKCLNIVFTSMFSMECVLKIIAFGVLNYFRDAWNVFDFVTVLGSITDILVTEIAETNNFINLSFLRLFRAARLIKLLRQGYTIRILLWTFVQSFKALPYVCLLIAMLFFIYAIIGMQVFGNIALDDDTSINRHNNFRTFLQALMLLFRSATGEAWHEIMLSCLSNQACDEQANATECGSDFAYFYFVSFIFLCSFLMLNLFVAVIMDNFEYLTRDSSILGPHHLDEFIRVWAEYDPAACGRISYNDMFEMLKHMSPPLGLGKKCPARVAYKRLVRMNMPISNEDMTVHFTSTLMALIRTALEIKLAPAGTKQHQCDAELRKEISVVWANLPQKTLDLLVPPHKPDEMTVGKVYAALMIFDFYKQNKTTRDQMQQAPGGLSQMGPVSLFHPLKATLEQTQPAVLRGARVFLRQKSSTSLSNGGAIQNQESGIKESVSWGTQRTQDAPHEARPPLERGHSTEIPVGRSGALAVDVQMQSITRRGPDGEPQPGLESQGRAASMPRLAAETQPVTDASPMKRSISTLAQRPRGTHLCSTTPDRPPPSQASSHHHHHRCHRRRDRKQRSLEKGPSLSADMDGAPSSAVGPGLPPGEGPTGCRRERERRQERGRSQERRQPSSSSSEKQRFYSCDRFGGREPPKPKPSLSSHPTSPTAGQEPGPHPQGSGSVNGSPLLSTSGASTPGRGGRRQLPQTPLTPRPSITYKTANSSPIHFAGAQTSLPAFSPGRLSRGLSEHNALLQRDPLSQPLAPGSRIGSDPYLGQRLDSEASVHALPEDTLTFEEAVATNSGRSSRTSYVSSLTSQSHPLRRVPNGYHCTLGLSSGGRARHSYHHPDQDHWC
T6 sequence (Q02410 whole entry): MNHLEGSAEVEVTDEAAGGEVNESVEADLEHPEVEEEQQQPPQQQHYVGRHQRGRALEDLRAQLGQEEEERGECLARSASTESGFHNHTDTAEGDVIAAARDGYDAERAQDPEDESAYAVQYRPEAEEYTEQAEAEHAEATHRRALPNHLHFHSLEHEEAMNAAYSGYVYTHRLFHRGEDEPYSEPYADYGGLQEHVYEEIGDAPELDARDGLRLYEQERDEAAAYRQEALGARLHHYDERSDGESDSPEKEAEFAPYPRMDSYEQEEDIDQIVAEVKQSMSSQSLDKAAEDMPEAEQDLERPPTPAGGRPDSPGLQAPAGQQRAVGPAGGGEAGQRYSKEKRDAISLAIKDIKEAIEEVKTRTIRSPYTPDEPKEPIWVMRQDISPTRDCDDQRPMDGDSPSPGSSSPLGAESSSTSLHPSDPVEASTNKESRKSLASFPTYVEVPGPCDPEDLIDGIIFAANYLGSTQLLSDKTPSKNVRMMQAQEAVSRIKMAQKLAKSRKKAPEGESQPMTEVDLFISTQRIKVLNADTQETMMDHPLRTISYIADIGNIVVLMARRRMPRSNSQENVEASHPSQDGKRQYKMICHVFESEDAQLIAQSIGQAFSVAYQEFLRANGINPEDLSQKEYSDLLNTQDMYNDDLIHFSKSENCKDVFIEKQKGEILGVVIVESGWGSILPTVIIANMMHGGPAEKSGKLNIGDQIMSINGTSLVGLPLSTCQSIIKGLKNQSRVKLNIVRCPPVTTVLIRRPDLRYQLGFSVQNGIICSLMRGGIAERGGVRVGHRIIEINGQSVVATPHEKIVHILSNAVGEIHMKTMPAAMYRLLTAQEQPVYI
Luciferin 4-monooxygenase, sequence (P08659 whole entry): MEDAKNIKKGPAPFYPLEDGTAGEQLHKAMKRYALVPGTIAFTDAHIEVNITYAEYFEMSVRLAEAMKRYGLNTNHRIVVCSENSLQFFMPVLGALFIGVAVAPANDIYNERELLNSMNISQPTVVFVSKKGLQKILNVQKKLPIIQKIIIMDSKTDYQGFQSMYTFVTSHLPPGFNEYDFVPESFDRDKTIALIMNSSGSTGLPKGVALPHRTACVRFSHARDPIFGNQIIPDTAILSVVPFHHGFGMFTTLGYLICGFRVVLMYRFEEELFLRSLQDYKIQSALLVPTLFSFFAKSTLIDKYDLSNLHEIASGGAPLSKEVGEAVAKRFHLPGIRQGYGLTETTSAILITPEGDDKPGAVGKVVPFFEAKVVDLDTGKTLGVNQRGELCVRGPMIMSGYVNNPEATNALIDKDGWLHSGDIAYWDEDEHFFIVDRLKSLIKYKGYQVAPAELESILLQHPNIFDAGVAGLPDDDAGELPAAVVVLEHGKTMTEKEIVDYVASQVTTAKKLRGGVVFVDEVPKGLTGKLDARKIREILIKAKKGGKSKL
Induced myeloid leukemia cell differentiation protein Mcl-1, sequence (Q07820 whole entry): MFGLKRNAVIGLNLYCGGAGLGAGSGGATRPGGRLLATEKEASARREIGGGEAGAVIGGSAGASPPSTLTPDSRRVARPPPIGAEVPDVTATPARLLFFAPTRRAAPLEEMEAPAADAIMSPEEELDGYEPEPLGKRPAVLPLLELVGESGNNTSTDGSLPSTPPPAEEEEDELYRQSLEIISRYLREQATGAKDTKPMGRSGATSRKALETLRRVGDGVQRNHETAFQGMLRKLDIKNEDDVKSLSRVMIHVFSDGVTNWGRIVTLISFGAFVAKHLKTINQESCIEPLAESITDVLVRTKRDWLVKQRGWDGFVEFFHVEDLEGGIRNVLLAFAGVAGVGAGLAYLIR
5-hydroxytryptamine receptor 1E, sequence (P28566 whole entry): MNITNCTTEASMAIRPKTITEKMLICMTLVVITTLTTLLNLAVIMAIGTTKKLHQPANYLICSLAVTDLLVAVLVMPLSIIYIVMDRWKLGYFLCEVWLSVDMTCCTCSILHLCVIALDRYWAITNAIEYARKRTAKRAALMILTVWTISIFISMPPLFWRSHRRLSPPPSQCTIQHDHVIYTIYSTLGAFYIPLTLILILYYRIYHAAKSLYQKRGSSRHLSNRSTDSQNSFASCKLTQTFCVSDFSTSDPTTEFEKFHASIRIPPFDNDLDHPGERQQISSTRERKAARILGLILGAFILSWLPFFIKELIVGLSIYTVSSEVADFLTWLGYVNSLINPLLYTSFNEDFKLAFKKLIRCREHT
NADPH oxidase 1, sequence (Q9Y5S8 whole entry, the tested form may be a part): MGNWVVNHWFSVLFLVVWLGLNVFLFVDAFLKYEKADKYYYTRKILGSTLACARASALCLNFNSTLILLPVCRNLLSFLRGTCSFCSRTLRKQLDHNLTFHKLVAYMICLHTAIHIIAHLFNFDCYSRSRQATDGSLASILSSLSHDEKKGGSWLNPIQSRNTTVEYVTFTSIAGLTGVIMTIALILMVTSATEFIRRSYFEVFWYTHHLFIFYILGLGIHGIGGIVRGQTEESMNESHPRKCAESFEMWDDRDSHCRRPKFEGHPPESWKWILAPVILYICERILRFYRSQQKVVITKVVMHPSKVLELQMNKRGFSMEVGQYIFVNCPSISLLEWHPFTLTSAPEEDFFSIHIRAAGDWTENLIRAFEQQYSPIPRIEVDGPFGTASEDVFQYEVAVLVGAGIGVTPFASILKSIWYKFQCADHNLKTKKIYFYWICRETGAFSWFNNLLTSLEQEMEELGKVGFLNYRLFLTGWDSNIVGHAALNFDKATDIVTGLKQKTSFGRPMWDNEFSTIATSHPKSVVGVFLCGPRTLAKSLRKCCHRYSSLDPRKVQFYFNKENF

O=C(CCCN1CCC2(CC1)C(=O)NCN2c1ccccc1)c1ccc(F)cc1 [SPIPERONE]
IC50 [1]: > 50 µM (not active) | IC50 [2]: > 50 µM (not active) | EC50 [3]: 6.68 µM (active)

CC(=O)OCCCNc1cc(SCc2ccco2)c2nonc2c1[N+](=O)[O-]
IC50 [4]: > 36.3 µM (not active) | IC50 [5]: > 109 µM (not active) | AC50 [6]: 4.6 µM (active) | EC50 [7]: 3.49 µM (active)

CC(=O)N1c2ccccc2Sc2ccccc21
IC50 [8]: 4.57 µM (active)

NC1=CC(=O)c2cccc3cccc1c23
EC50 [9]: 7.46 µM (inconclusive) | EC50 [10]: 1.98 µM (inconclusive) | IC50 [11]: 12.7 µM (active) | IC50 [12]: 16.7 µM (active) | IC50 [13]: > 50 µM (inactive)

O=C(Nc1cccc(NC(=O)c2ccccc2Cl)c1)c1ccco1
EC50 [14]: > 112 µM (not active) | EC50 [15]: 5.86 µM (active) | EC50 [16]: < 0.3 µM (active) | EC50 [17]: < 1 µM (active)
